≈ marks a conversion by molar mass, not a printed value.
Columns and labels:
[1] = Cytotoxicity against human Col1 cells after 3 days by sulforhodamine B assay; assay type: cell-based; conditions: read-out: ED50
[2] = Cytotoxicity against human HT1080 cells after 3 days by sulforhodamine B assay; assay type: cell-based, HT-1080; conditions: read-out: ED50
[3] = Selectivity index, ratio of ED50 for human ZR-75-1 cells to ED50 for chloroquine-resistant Plasmodium falciparum W2; assay type: toxicity, cell-based; conditions: read-out: Ratio ED50
Plasmodium falciparum [4] = assay: Antimalarial activity after 24 hrs against chloroquine-resistant Plasmodium falciparum W2 infected type A+ human erythrocytes by [3H]hypoxanthine uptake; assay type: functional; conditions: read-out: ED50 (the source's name)
[5] = Cytotoxicity against human ZR-75-1 cells after 3 days by sulforhodamine B assay; assay type: cell-based; conditions: read-out: ED50
[6] = Ratio of ED50 for human KB cells to ED50 for human KBV1 cells; assay type: ADME, cell-based; conditions: KB cells and KBV1 cells, read-out: Ratio ED50
[7] = Selectivity index, ratio of ED50 for human BCA1 cells to ED50 for chloroquine-sensitive Plasmodium falciparum D6; assay type: toxicity, cell-based; conditions: read-out: Ratio ED50
in vitro [8] = conditions: human, A431 cells
Description: Selectivity index, ratio of ED50 for human A431 cells to ED50 for chloroquine-sensitive Plasmodium falciparum D6

[9] = Cytotoxicity against human BCA1 cells after 3 days by sulforhodamine B assay; assay type: cell-based; conditions: read-out: ED50
Plasmodium falciparum [10] = assay: Antimalarial activity after 24 hrs against chloroquine-sensitive Plasmodium falciparum D6 infected type A+ human erythrocytes by [3H]hypoxanthine uptake; assay type: functional; conditions: read-out: ED50 (the source's name)
[11] = Selectivity index, ratio of ED50 for human MEL2 cells to ED50 for chloroquine-resistant Plasmodium falciparum W2; assay type: toxicity, cell-based; conditions: read-out: Ratio ED50
in vitro [12] = conditions: mouse, P388 cells
Description: Selectivity index, ratio of ED50 for mice (Mus musculus) P388 cells to ED50 for chloroquine-resistant Plasmodium falciparum W2

[13] = Cytotoxicity against mouse P388 cells after 2 days by sulforhodamine B assay; assay type: cell-based; conditions: read-out: ED50
[14] = Cytotoxicity against human LNCAP cells after 3 days by sulforhodamine B assay; assay type: cell-based; conditions: read-out: ED50
[15] = Selectivity index, ratio of ED50 for human KB-V1 cells to ED50 for chloroquine-resistant Plasmodium falciparum W2; assay type: toxicity, cell-based; conditions: read-out: Ratio ED50
[16] = Selectivity index, ratio of ED50 for human KB cells to ED50 for chloroquine-sensitive Plasmodium falciparum D6; assay type: toxicity, cell-based; conditions: read-out: Ratio ED50
[17] = Cytotoxicity against human SK-MEL-2 cells after 3 days by sulforhodamine B assay; assay type: cell-based; conditions: read-out: ED50
[18] = Selectivity index, ratio of ED50 for human LUC1 cells to ED50 for chloroquine-resistant Plasmodium falciparum W2; assay type: toxicity, cell-based; conditions: read-out: Ratio ED50
[19] = Selectivity index, ratio of ED50 for human COL1 cells to ED50 for chloroquine-resistant Plasmodium falciparum W2; assay type: toxicity, cell-based; conditions: read-out: Ratio ED50
[20] = Selectivity index, ratio of ED50 for human COL1 cells to ED50 for chloroquine-sensitive Plasmodium falciparum D6; assay type: toxicity, cell-based; conditions: read-out: Ratio ED50
[21] = Selectivity index, ratio of ED50 for human LNCaP cells to ED50 for chloroquine-sensitive Plasmodium falciparum D6; assay type: toxicity, cell-based; conditions: read-out: Ratio ED50
[22] = Selectivity index, ratio of ED50 for human KB cells to ED50 for chloroquine-resistant Plasmodium falciparum W2; assay type: toxicity, cell-based; conditions: read-out: Ratio ED50
[23] = Selectivity index, ratio of ED50 for human KB-V1 cells to ED50 for chloroquine-sensitive Plasmodium falciparum D6; assay type: toxicity, cell-based; conditions: read-out: Ratio ED50
[24] = Cytotoxicity against human A431 cells after 3 days by sulforhodamine B assay; assay type: cell-based, A-431; conditions: read-out: ED50
[25] = Selectivity index, ratio of ED50 for human LUC1 cells to ED50 for chloroquine-sensitive Plasmodium falciparum D6; assay type: toxicity, cell-based; conditions: read-out: Ratio ED50
[26] = Selectivity index, ratio of ED50 for human BCA1 cells to ED50 for chloroquine-resistant Plasmodium falciparum W2; assay type: toxicity, cell-based; conditions: read-out: Ratio ED50
[27] = Selectivity index, ratio of ED50 for human HT1080 cells to ED50 for chloroquine-sensitive Plasmodium falciparum D6; assay type: toxicity, cell-based, HT-1080; conditions: read-out: Ratio ED50
[28] = Selectivity index, ratio of ED50 for human MEL2 cells to ED50 for chloroquine-sensitive Plasmodium falciparum D6; assay type: toxicity, cell-based; conditions: read-out: Ratio ED50
in vitro [29] = conditions: human, A431 cells; remark: listed apart in the source
Description: Selectivity index, ratio of ED50 for human A431 cells to ED50 for chloroquine-resistant Plasmodium falciparum W2

[30] = Cytotoxicity against human LUC1 cells after 3 days by sulforhodamine B assay; assay type: cell-based; conditions: read-out: ED50
[31] = Cytotoxicity against human KB cells after 3 days by sulforhodamine B assay; assay type: cell-based; conditions: read-out: ED50
[32] = Cytotoxicity against human KBV1 cells after 3 days by sulforhodamine B assay; assay type: cell-based, KB-V1; conditions: read-out: ED50
[33] = Selectivity index, ratio of ED50 for human HT1080 cells to ED50 for chloroquine-resistant Plasmodium falciparum W2; assay type: toxicity, cell-based, HT-1080; conditions: read-out: Ratio ED50
in vitro [34] = conditions: mouse, P388 cells; remark: listed apart in the source
Description: Selectivity index, ratio of ED50 for mice (Mus musculus) P388 cells to ED50 for chloroquine-sensitive Plasmodium falciparum D6

[35] = Selectivity index, ratio of ED50 for human LNCaP cells to ED50 for chloroquine-resistant Plasmodium falciparum W2; assay type: toxicity, cell-based; conditions: read-out: Ratio ED50
[36] = Selectivity index, ratio of ED50 for human ZR-75-1 cells to ED50 for chloroquine-sensitive Plasmodium falciparum D6; assay type: toxicity, cell-based; conditions: read-out: Ratio ED50

Row | Structure (SMILES) | CC50 at 72 h [1] [µg/mL] | CC50 at 72 h [2] [µg/mL] | selectivity ratio [3] | EC50 (Plasmodium falciparum [4]) [µg/mL] | CC50 at 72 h [5] [µg/mL] | selectivity ratio [7] | selectivity ratio (in vitro [8]) | CC50 at 72 h [9] [µg/mL] | EC50 (Plasmodium falciparum [10]) [µg/mL] | selectivity ratio [11] | selectivity ratio (in vitro [12]) | CC50 at 48 h [13] [µg/mL] | CC50 at 72 h [14] [µg/mL] | selectivity ratio [15] | selectivity ratio [16] | CC50 at 72 h [17] [µg/mL] | selectivity ratio [18] | selectivity ratio [19] | selectivity ratio [20] | selectivity ratio [21] | further results
1 | COc1ccc2cc1Oc1ccc(cc1)C[C@H]1c3c(cc(OC)c4c3Oc3cc5c(cc3O4)CCN(C)[C@@H]5C2)CCN1C | 3.6 (≈ 6.24 µM) | 2.2 (≈ 3.81 µM) | 5 | 0.256 (≈ 0.443 µM) | 1.2 (≈ 2.08 µM) | 24 | 27 | 2.3 (≈ 3.99 µM) | 0.0974 (≈ 0.169 µM) | 34 | 22 | 5.6 (≈ 9.71 µM) | 2.1 (≈ 3.64 µM) | 2 | 49 | 8.7 (≈ 15.1 µM) | 30 | 14 | 37 | 22 | selectivity ratio [6]: 10; selectivity ratio [22]: 19; selectivity ratio [23]: 4; CC50 at 72 h [24]: 2.6 µg/mL (≈ 4.51 µM); selectivity ratio [25]: 79; selectivity ratio [26]: 9; selectivity ratio [27]: 23; selectivity ratio [28]: 89; selectivity ratio (in vitro [29]): 10; CC50 at 72 h [30]: 7.7 µg/mL (≈ 13.4 µM); CC50 at 72 h [31]: 4.8 µg/mL (≈ 8.32 µM); CC50 at 72 h [32]: 0.4 µg/mL (≈ 0.694 µM); selectivity ratio [33]: 9; selectivity ratio (in vitro [34]): 57; selectivity ratio [35]: 8; selectivity ratio [36]: 12
2 | COc1ccc2cc1Oc1ccc(cc1)C[C@H]1c3c(cc(OC)c(OC)c3Oc3cc4c(cc3OC)CCN(C)[C@@H]4C2)CCN1C [OBABERINE] | 10.8 (≈ 17.3 µM) | 10.4 (≈ 16.7 µM) | 19 | 0.216 (≈ 0.347 µM) | 4 (≈ 6.42 µM) | 20 | 38 | 4.6 (≈ 7.39 µM) | 0.231 (≈ 0.371 µM) | 93 | 19 | 4.1 (≈ 6.58 µM) | 5 (≈ 8.03 µM) | 12 | 37 | 20 (≈ 32.1 µM) | 45 | 50 | 47 | 22 | selectivity ratio [22]: 40; selectivity ratio [23]: 11; CC50 at 72 h [24]: 8.7 µg/mL (≈ 14 µM); selectivity ratio [25]: 42; selectivity ratio [26]: 21; selectivity ratio [27]: 45; selectivity ratio [28]: 87; selectivity ratio (in vitro [29]): 40; CC50 at 72 h [30]: 9.7 µg/mL (≈ 15.6 µM); CC50 at 72 h [31]: 8.6 µg/mL (≈ 13.8 µM); CC50 at 72 h [32]: 2.6 µg/mL (≈ 4.17 µM); selectivity ratio [33]: 48; selectivity ratio (in vitro [34]): 18; selectivity ratio [35]: 23; selectivity ratio [36]: 17
3 | C=C[C@H]1CN2CC[C@H]1C[C@H]2[C@H](O)c1ccnc2ccc(OC)cc12 [QUININE] | > 20 | > 20 | 649 | 0.0308 (≈ 0.0949 µM) | > 20 | > 2630 | > 2630 | > 20 | 0.0076 (≈ 0.0234 µM) | 649 | > 658 | > 5 | > 20 | 182 | > 2630 | > 20 | 649 | 649 | > 2630 | > 2630 | selectivity ratio [22]: 649; selectivity ratio [23]: 737; CC50 at 72 h [24]: > 20 µg/mL; selectivity ratio [25]: > 2630; selectivity ratio [26]: 649; selectivity ratio [27]: > 2630; selectivity ratio [28]: > 2630; selectivity ratio (in vitro [29]): 649; CC50 at 72 h [30]: > 20 µg/mL; CC50 at 72 h [31]: > 20 µg/mL; CC50 at 72 h [32]: 5.6 µg/mL (≈ 17.3 µM); selectivity ratio [33]: 649; selectivity ratio (in vitro [34]): > 658; selectivity ratio [35]: 649; selectivity ratio [36]: > 2630

Reference: ChEMBL document CHEMBL1147331, “Cytotoxic and antimalarial bisbenzylisoquinoline alkaloids from Stephania erecta” (J Nat Prod, 1993)
